Data from US10299502B2, “Method for producing an extract of a matrix of vegetable origin with a non-ionic amphiphilic compound as extraction adjuvant in an aqueous medium” (PIERRE FABRE DERMO-COSMETIQUE, priority 2015, dated 2019).

Assays:
[1] = Recovery of extracted α-mangostin by precipitation on dilution; format: physicochemical
Source text: The extract thus obtained may also be diluted in a volume of water optionally supplemented with one or more adjuvants selected from salts, acids or bases, so as to be at a final concentration of non-ionic amphiphilic compound below the sufficient concentration defined above. Thus, it is possible to recover the lipophilic compounds by precipitation and solid-liquid separation such as filtration or centrifugation.
At 7% amyl xyloside, 100% of the α-mangostin extracted precipitates.

[2] = Solubilization curves (Sudan red, α-mangostin) to determine the minimum hydrotrope concentration; format: physicochemical; details: deduced from solubilization curves in aqueous solution
Method: The term “minimum hydrotrope concentration” refers to the concentration above which these non-ionic amphiphilic compounds begin to form aggregates, i.e., new microenvironments with physical properties different from those observed when the compound is diluted, and different from micellar behavior. This minimum hydrotrope concentration is specific to each non-ionic amphiphilic compound and generally has the order of magnitude of the molarity. It can be determined by several physicochemical methods, such as by measuring surface tension, conductivity or dynamic and static light scattering (Self-association of nicotinamide in aqueous solution: Light-scattering and vapor pressure osmometry studies (1996) 85(8): 848-853), or quite simply by establishing a solubilization curve of a lipophilic compound (solubilized solute content as a function of concentration of non-ionic amphiphilic compound). Sudan red, a lipophilic dye easily measured by spectrophotometry, can be used as reference. […]
The solubilization curves of Sudan red in aqueous solutions of various non-ionic amphiphilic compounds at different concentrations were prepared. After saturation of the solutions with Sudan red and filtration, the Sudan red content solubilized in each solution is measured after dilution by UV spectrophotometry at 476 nm. […]

| Molecule | % of α-mangostin recovered by precipitation/α-mangostin extracted ([1]; extraction concentration 40%, concentration after dilution 7%) [%] | % of α-mangostin recovered by precipitation/α-mangostin extracted ([1]; extraction concentration 40%, concentration after dilution 7%, listed as amyl xyloside) [%] | % of α-mangostin recovered by precipitation/α-mangostin extracted ([1]; extraction concentration 40%, concentration after dilution 15%) [%] | % of α-mangostin recovered by precipitation/α-mangostin extracted ([1]; extraction concentration 40%, concentration after dilution 15%, listed as amyl xyloside) | MHC (minimum hydrotrope concentration) [2] | % of α-mangostin recovered by precipitation/α-mangostin extracted ([1]; extraction concentration 59%, concentration after dilution 24%) [%] |
| --- | --- | --- | --- | --- | --- | --- |
| amyl xyloside | 100 | 100 | 12 | little α-mangostin precipitates | 5-10% |  |
| CC(C)(O)CCO [Isopentyldiol, 3-methyl-1,3-butanediol] |  |  |  |  |  | 66 |
